{
  "source": "patent US20230345943A1",
  "about": "“METHOD AND PROCESS FOR COMPLETE ELIMINATION OF VARIOUS STEPS OF PEST GROWTH IN PLANTS USING DI[…] BASED ON ETHA[…] AND HYDROGEN PEROXIDE” (priority 2020, published 2023)",
  "key": {"Chilo suppressalis": {"system": "Chilo suppressalis", "assay": "Field protocol against Chilo suppressalis in rice", "type": "in vivo", "settings": "six-step protocol, dosage of 1 to 2 in one thousand from transplantation treasury to before harvest", "from_the_text": "In this invention ethaneperoxoic acid used for the first time to fight with Chilo suppressalis with the below mentioned method: • Step 1: The dosage of 1 in one thousand in the transplantation treasury; • Step 2: At the time of transferring the seedlings to the field with the dosage of 1 in one thousand to fight with the first generation; • Step 3: 10 days after transferring the seedlings to the field with the dosage of 1 in one thousand to fight with the second generation; • Step 4: 30 days after transferring the seedlings to the field with the dosage of 1 in one thousand; • Step 5: 45 days after transferring the seedlings to the field with the dosage of 2 in one thousand and 1 in one thousand to fight with the third generation; • Step 6: before harvesting the rice with the dosage of 2 in one thousand."}, "[1]": {"system": "fungus, bacteria and viruses and plant pests in all stages such as eggs, larva, adults", "assay": "Spray with wetting agent to control plant pathogens and pests", "type": "in vivo", "settings": "3 liters (active ingredient at least 20%) plus 500 cc of non-ionic fatty amine compounds in 1000 liters of water", "from_the_text": "For longer durability of Ethaneperoxoic acid based compounds, non-ionic fatty amine compounds (wetting agent) should be used in this method for the first time in two different ways, both within the formulation or added separately to the compound. These compounds cause the Ethaneperoxoic acid that is sprayed on the target to increase the duration of exposure of Ethaneperoxoic acid to the chitin surface of insects due to the reduction of surface tension of water droplets."}},
  "data": [
    {"smiles": "CC(=O)OO", "note": "[ethaneperoxoic acid]", "values": [
      {"measurement": "damage due to the Chilo suppressalis", "setting": "Chilo suppressalis", "value": "completely control"},
      {"measurement": "effect in controlling fungus, bacteria and viruses and plant pests in all stages", "setting": "[1]", "value": "significant impressive effect"}
    ]}
  ]
}
